The test system of assay [1] is Toledo cells. The assay can be described thus: Cell proliferation assay, Toledo cells (MTS, 72 h). In kind it is cell-based. The note with it: Homo sapiens, Toledo cells, MTS, read-out: Toledo IC50. The gist of the method: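 Toledo cells (30000/well, RPMI-1640 with 10% FBS) were preincubated for 4 h. They were then exposed to nine compound concentrations from 10000 to 1.5 nM for 72 h at 37 °C, 5% CO2. MTS was added for 2 h and absorbance read at 490 nm to give IC50.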

Assay [2] has as its system RS4;11-BCL-2 G101V cells. The assay can be described thus: Cell proliferation assay, engineered RS4;11 cells stably overexpressing BCL-2 G101V (MTS, 168 h). The format is cell-based. Conditions: read-out: RS4, 11 BCL2- G101V. Here is the method: MTS testing kit was purchased from Promega (Madison, Wis., USA). The RPMI-1640, Fetal bovine serum and Penicillin-Streptomycin were purchased from BI (Biological Industries, Beit Haemek, Israel). Puromycin was purchased from Beyotime (shanghai, China). Dimethyl sulfoxide (DMSO) was purchased from Sigma (St. Louis, Mo., USA). RS4;1l-BCL-2 G101V and RS4;11-BCL-2 F104L cells were cultured in RPM11640 supplemented with 1 ug/mL puromycin, 100 U/mL Penicillin-Streptomycin and 10% FBS.
To investigate whether a compound is able to inhibit the activity of BCL-2 mutation in cells, a mechanism-based assay using engineered cell lines stably overexpressing BCL-2 mutation ([…] and […]) was developed. In this assay, the inhibition of BCL-2 mutation was reflected by the inhibition of cell proliferation of RS4;11-BCL-2 G101V and RS4;11-BCL-2 F104L cells. Cells were plated into 96-well plates at optimized cell density (RS4;11-BCL-2 G101V: 5000 cells/well; RS4;11-BCL-2 F104L: 5000 cells/well). Plates were incubated at 37° C., with 5% CO2 for 4 h. Compounds were serially diluted to the final-concentrations of 10000, 3333.3, 1111.1, 370.4, 123.5, 41.2, 13.7, 4.6 and 1.4 nM and added to the plates. Plates were incubated at 37° C., with 5% CO2 for 168 h. 20 μl MTS was added into each well and the plates were incubated at 37° C., with 5% CO2 exactly for 2 h. The absorbance was measured by a microplate reader at 490 nm. IC50 values were calculated using GraphPad Prism 5.0 software.

Read-outs that look alike come from different tables or passages of the source.

On to `CNCCOc1nc2[nH]ccc2cc1Oc1cc(N2CCC3(CC2)CC(N2CCC[C@H]2c2ccccc2C(C)C)C3)ccc1C(=O)NS(=O)(=O)c1cc2c(c([N+](=O)[O-])c1)N[C@@H]([C@H]1CC[C@](C)(O)CC1)CO2` (single isomer, unassigned) [Example D-59, N-(((S)-3-((1r,4S)-4-hydroxy-4-methylcyclohexyl)-5-nitro-3,4-dihydro-2H-benzo[b][1,4]oxazin-7-yl)sulfonyl)-4-(2-((R or S)-2-(2-isopropylphenyl)pyrrolidin-1-yl)-7-azaspiro[3.5]nonan-7-yl)-2-((6-(2-(methylamino)ethoxy)-1H-pyrrolo[2,3-b]pyridin-5-yl)oxy)benzamide], for which the IC50 worked out at 1 nM in assay [1] and 15 nM in assay [2] (Homo sapiens, RS4-11, 168 h).

For `CC(C)c1ccccc1[C@@H]1CCCN1C1CC2(CCN(c3ccc(C(=O)NS(=O)(=O)c4cc5c(c([N+](=O)[O-])c4)N[C@@H]([C@H]4CC[C@](C)(O)CC4)CO5)c(Oc4cc5cc[nH]c5nc4OC4COC4)c3)CC2)C1` (single isomer, unassigned) [Example D-72, N-(((S)-3-((1r,4S)-4-hydroxy-4-methylcyclohexyl)-5-nitro-3,4-dihydro-2H-benzo[b][1,4]oxazin-7-yl)sulfonyl)-4-(2-((R or S)-2-(2-isopropylphenyl)pyrrolidin-1-yl)-7-azaspiro[3.5]nonan-7-yl)-2-((6-(oxetan-3-yloxy)-1H-pyrrolo[2,3-b]pyridin-5-yl)oxy) benzamide], the IC50 in assay [1] was 1 nM; in assay [2] (Homo sapiens, RS4-11, 168 h), 17 nM.

On to `CC(C)c1ccccc1[C@@H]1CCCN1C1CC2(CCN(c3ccc(C(=O)NS(=O)(=O)c4cc5c(c([N+](=O)[O-])c4)N[C@@H]([C@H]4CC[C@](C)(O)CC4)CO5)c(Oc4cc5cc[nH]c5nc4OCCN4CCOCC4)c3)CC2)C1` (single isomer, unassigned) [Example D-63, N-(((S)-3-((1r,4S)-4-hydroxy-4-methylcyclohexyl)-5-nitro-3,4-dihydro-2H-benzo[b][1,4]oxazin-7-yl)sulfonyl)-4-(2-((R or S)-2-(2-isopropylphenyl)pyrrolidin-1-yl)-7-azaspiro[3.5]nonan-7-yl)-2-((6-(2-morpholinoethoxy)-1H-pyrrolo[2,3-b]pyridin-5-yl)oxy) benzamide], for which the IC50 in assay [1] was determined as 1 nM; in assay [2] (Homo sapiens, RS4-11, 168 h), 1 nM.

For the compound `CC(C)c1ccccc1[C@@H]1CCCN1C1CC2(CCN(c3ccc(C(=O)NS(=O)(=O)c4cc5c(c([N+](=O)[O-])c4)N[C@@H]([C@H]4CC[C@](C)(O)CC4)CO5)c(Oc4cc5cc[nH]c5nc4O[C@H]4CCN(C)C4)c3)CC2)C1` (single isomer, unassigned) [Example D-226, N-(((S)-3-((1r,4S)-4-hydroxy-4-methylcyclohexyl)-5-nitro-3,4-dihydro-2H-benzo[b][1,4]oxazin-7-yl)sulfonyl)-4-(2-((R or S)-2-(2-isopropylphenyl)pyrrolidin-1-yl)-7-azaspiro[3.5]nonan-7-yl)-2-((6-(((5)-1-methylpyrrolidin-3-yl)oxy)-1H-pyrrolo[2,3-b]pyridin-5-yl)oxy)benzamide], the IC50 in assay [1] was 1 nM; in assay [2] (Homo sapiens, RS4-11, 168 h), 13 nM.

Take `COCCOc1nc2[nH]ccc2cc1Oc1cc(N2CCC3(CC2)CN([C@H]2CCC[C@H]2c2ccccc2C(C)C)C3)ccc1C(=O)NS(=O)(=O)c1cc2c(c([N+](=O)[O-])c1)N[C@@H]([C@H]1CC[C@](C)(O)CC1)CO2` (racemic) [Example D-75a, N-(((S)-3-((1r,4S)-4-hydroxy-4-methylcyclohexyl)-5-nitro-3,4-dihydro-2H-benzo[b][1,4]oxazin-7-yl)sulfonyl)-4-(2-((1S,2S and 1R,2R)-2-(2-isopropylphenyl)cyclopentyl)-2,7-diazaspiro[3.5]nonan-7-yl)-2-((6-(2-methoxyethoxy)-1H-pyrrolo[2,3-b]pyridin-5-yl)oxy) benzamide]: the IC50 in assay [1] is 1 nM; in assay [2] (Homo sapiens, RS4-11, 168 h) it was 4 nM.

As for `CCOc1nc2[nH]ccc2cc1Oc1cc(N2CCC3(CC2)CN([C@H]2CCC[C@H]2c2ccccc2C(C)C)C3)ccc1C(=O)NS(=O)(=O)c1cc2c(c([N+](=O)[O-])c1)N[C@@H]([C@H]1CC[C@](C)(O)CC1)CO2` (single isomer, unassigned) [Example D-98, 2-((6-ethoxy-1H-pyrrolo[2,3-b]pyridin-5-yl)oxy)-N-((S)-3-((1r,4S)-4-hydroxy-4-methylcyclohexyl)-5-nitro-3,4-dihydro-2H-benzo[b] [1,4]oxazin-7-yl)sulfonyl)-4-(2-((1S,2S or 1R,2R)-2-(2-isopropylphenyl)cyclopentyl)-2,7-diazaspiro[3.5]nonan-7-yl)benzamide], the IC50 was 1 nM in assay [1] and 1 nM in assay [2] (Homo sapiens, RS4-11, 168 h).

Take `CC(C)c1ccccc1[C@@H]1CN(C(=O)C2CC2)CCN1C1CC2(CCN(c3ccc(C(=O)NS(=O)(=O)c4cc5c(c([N+](=O)[O-])c4)N[C@@H]([C@H]4CC[C@](C)(O)CC4)CO5)c(Oc4cnc5[nH]cc(F)c5c4)c3)CC2)C1` (single isomer, unassigned) [Example D-82, 4-(2-((R or S)-4-(cyclopropanecarbonyl)-2-(2-isopropylphenyl)piperazin-1-yl)-7-azaspiro[3.5]nonan-7-yl)-2-((3-fluoro-1H-pyrrolo[2,3-b]pyridin-5-yl)oxy)-N-(((S)-3-((1r,4S)-4-hydroxy-4-methylcyclohexyl)-5-nitro-3,4-dihydro-2H-benzo[b][1,4]oxazin-7-yl)sulfonyl)benzamide]: the IC50 in assay [1] is 1 nM; in assay [2] (Homo sapiens, RS4-11, 168 h), 19 nM.

For the compound `CCOc1nc2[nH]ccc2cc1Oc1cc(N2CCC3(CC2)CN([C@H]2CCC[C@H]2c2ccccc2C(C)C)C3)ccc1C(=O)NS(=O)(=O)c1ccc(NC[C@H]2CC[C@](C)(O)CC2)c([N+](=O)[O-])c1` (single isomer, unassigned) [Example D-92, 2-((6-ethoxy-1H-pyrrolo[2,3-b]pyridin-5-yl)oxy)-N-((4-((((1r,4r)-4-hydroxy-4-methylcyclohexyl)methyl)amino)-3-nitrophenyl)sulfonyl)-4-(2-((1S,2S or 1R,2R)-2-(2-isopropylphenyl)cyclopentyl)-2,7-diazaspiro[3.5]nonan-7-yl)benzamide], the IC50 turned out to be 1 nM in assay [1] and 1 nM in assay [2] (Homo sapiens, RS4-11, 168 h).

With `CC(C)c1ccccc1[C@@H]1CCCN1C1CC2(CCN(c3ccc(C(=O)NS(=O)(=O)c4cc5c(c([N+](=O)[O-])c4)N[C@@H]([C@H]4CC[C@](C)(O)CC4)CO5)c(Oc4cc5cc[nH]c5nc4OC4CN(C)C4)c3)CC2)C1` (single isomer, unassigned) [Example D-201, N-(((S)-3-((1r,4S)-4-hydroxy-4-methylcyclohexyl)-5-nitro-3,4-dihydro-2H-benzo[b][1,4]oxazin-7-yl)sulfonyl)-4-(2-((R or S)-2-(2-isopropylphenyl)pyrrolidin-1-yl)-7-azaspiro[3.5]nonan-7-yl)-2-((6-((1-methylazetidin-3-yl)oxy)-1H-pyrrolo[2,3-b]pyridin-5-yl)oxy)benzamide], the IC50 came to 1 nM in assay [1] and 1 nM in assay [2] (Homo sapiens, RS4-11, 168 h).

On to `COCCOc1nc2[nH]ccc2cc1Oc1cc(N2CCC3(CC2)CN([C@H]2CCC[C@H]2c2ccccc2C(C)C)C3)ccc1C(=O)NS(=O)(=O)c1cc2c(c([N+](=O)[O-])c1)N[C@@H]([C@H]1CC[C@](C)(O)CC1)CO2` (single isomer, unassigned) [Example D-75b, N-(((S)-3-((1r,4S)-4-hydroxy-4-methylcyclohexyl)-5-nitro-3,4-dihydro-2H-benzo[b][1,4]oxazin-7-yl)sulfonyl)-4-(2-((1S,2S or 1R,2R)-2-(2-isopropylphenyl)cyclopentyl)-2,7-diazaspiro[3.5]nonan-7-yl)-2-((6-(2-methoxyethoxy)-1H-pyrrolo[2,3-b]pyridin-5-yl)oxy) benzamide], for which the IC50 came to 1 nM in assay [1] and 16 nM in assay [2] (Homo sapiens, RS4-11, 168 h).

With `CC(C)c1ccccc1[C@@H]1CCC[C@@H]1N1CC2(CCN(c3ccc(C(=O)NS(=O)(=O)c4ccc(NC[C@H]5CC[C@](C)(O)CC5)c([N+](=O)[O-])c4)c(Oc4cnc5[nH]cc(F)c5c4)c3)CC2)C1` (single isomer, unassigned) [Example D-34a, 2-((3-fluoro-1H-pyrrolo[2,3-b]pyridin-5-yl)oxy)-N-((4-((1r,4r)-4-hydroxy-4-methylcyclohexyl)methyl)amino)-3-nitrophenyl) sulfonyl)-4-(2-((1S,2S or 1R,2R)-2-(2-isopropylphenyl)cyclopentyl)-2,7-diazaspiro[3.5]nonan-7-yl)benzamide], the IC50 in assay [1] was found to be 1 nM; in assay [2], 18 nM.

For the origin of these results see US20230159527A1, “COMPOUNDS AS BCL-2 INHIBITORS” (Fochon Pharmaceuticals, Ltd., priority 2020, published 2023).
